Data from patent US20080255106A1, “Novel 2-Phenyl-Imidazo[4,5-B]Pyridine Derivatives as Inhibitors of Glycogen Synthase Kinase for the Treatment of Dementia and Neurodegenerative Disorders” (AstraZeneca AB, priority 2005, published 2008).
pKi: −log10 of the molar value. Structures can show the parent of a compound that is named as a salt.

molecular target: T1, GSK3β (Homo sapiens, UniProt P49841); assay: GSK3β Scintillation Proximity Assay (ATP competition); assay type: biochemical; settings: recombinant human GSK3β, SPA, 1 μM ATP, Km of ATP 20 μM used to calculate Ki
T1 construct: purchased Dundee University, UK
T1 sequence (P49841 whole entry): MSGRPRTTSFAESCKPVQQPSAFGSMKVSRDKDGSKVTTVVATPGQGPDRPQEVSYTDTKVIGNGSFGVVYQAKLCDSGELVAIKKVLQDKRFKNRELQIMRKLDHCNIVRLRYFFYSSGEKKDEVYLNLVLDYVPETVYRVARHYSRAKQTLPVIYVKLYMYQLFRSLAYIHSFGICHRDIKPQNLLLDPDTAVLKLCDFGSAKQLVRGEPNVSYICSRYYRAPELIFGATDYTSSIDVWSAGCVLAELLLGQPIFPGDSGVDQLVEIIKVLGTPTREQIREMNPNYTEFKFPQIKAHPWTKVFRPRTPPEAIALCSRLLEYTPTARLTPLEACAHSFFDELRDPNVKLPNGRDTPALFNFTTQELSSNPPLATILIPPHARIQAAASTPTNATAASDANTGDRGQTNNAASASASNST
Protocol: Determination of ATP Competition in Scintillation Proximity GSK3β Assay.
GSK3β Scintillation Proximity Assay.
The competition experiments were carried out in duplicate with 10 different concentrations of the inhibitors in clear-bottom microtiter plates (Wallac, Finland). A biotinylated peptide substrate, Biotin-Ala-Ala-Glu-Glu-Leu-Asp-Ser-Arg-Ala-Gly-Ser(PO3H2)-Pro-Gln-Leu (AstraZeneca, Lund), was added at a final concentration of 1 μM in an assay buffer containing 1 mU recombinant human GSK30 (Dundee University, UK), 12 mM morpholinepropanesulfonic acid (MOPS), pH 7.0, 0.3 mM EDTA, 0.01% β-mercaptoethanol, 0.004% Brij 35 (a […] detergent), 0.5% glycerol and 0.5 μg BSA/25 μl. The reaction was initiated by the addition of 0.04 μCi [γ-^33P]ATP (Amersham, UK) and unlabelled ATP at a final concentration of 1 μM and assay volume of 25 μl. After incubation for 20 minutes at room temperature, each reaction was terminated by the addition of 25 μl stop solution containing 5 mM EDTA, 50 μM ATP, 0.1% Triton X-100 and 0.25 mg streptavidin coated Scintillation Proximity Assay (SPA) beads (Amersham, UK). After 6 hours the radioactivity was determined in a liquid scintillation counter (1450 MicroBeta Trilux, Wallac). The inhibition curves were analysed by non-linear regression using GraphPad Prism, USA. The Km value of ATP for GSK3, used to calculate the inhibition constants (Ki) of the various compounds, was 20 μM.

COCCCNC(=O)c1ccnc2[nH]c(-c3ccc(C(=O)N4CCN(C)CC4)cc3)nc12 [Example 6, N-(3-Methoxypropyl)-2-{4-[(4-methylpiperazin-1-yl)carbonyl]phenyl}-3H-imidazo[4,5-b]pyridine-7-carboxamide hydrochloride] and COCCCNC(=O)c1ccnc2[nH]c(-c3ccc(C(=O)N4CCOCC4)cc3)nc12 [Example 7, N-(3-Methoxypropyl)-2-[4-(morpholin-4-ylcarbonyl)phenyl]-3H-imidazo[4,5-b]pyridine-7-carboxamide hydrochloride] are within 0.2 log units of each other in pKi: 7.29 for the first, 7.44 for the second.

Compared with COCCCNC(=O)c1ccnc2[nH]c(-c3ccc(C(F)(F)F)cc3)nc12 [Example 3, N-(3-Methoxypropyl)-2-[4-(trifluoromethyl)phenyl]-3H-imidazo[4,5-b]pyridine-7-carboxamide hydrochloride], COCCCNC(=O)c1ccnc2[nH]c(-c3cccc(COCC(F)(F)C(F)F)c3)nc12 [Example 4, N-(3-Methoxypropyl)-2-{3-[(2,2,3,3-tetrafluoropropoxy)methyl]phenyl}-3H-imidazo[4,5-b]pyridine-7-carboxamide hydrochloride] is 0.33 log units higher in pKi: 7.77 for the first, 8.10 for the second. The second binds more tightly here.
